Measurements: patent US20240139125A1 (INDUSTRIAL COOPERATION FOUNDATION JEONBUK NATIONAL …, priority 2020, published 2024)

How the values were obtained:
[1] = test system: HT1080, MCF7, MDA-MB-231 and SKBR3 cells; assay: Cell migration (Transwell, wound healing); assay type: cell-based
Procedure: Image (A) and quantification graph (B) (n=3 independent experiment).
FIG. […] The graph on the right quantifies migrated cells from BIA-treated cells normalized to control cells (n=3 independent experiments. Data were expressed in mean±SD. **p<0.01, ***p<0.001, two-tailed unpaired t-test simulation. The scale bar represents 15 μm.
It was used and checked. Cells were treated with trypsin, and serum and 2×10^4 cells were added to the upper chamber in DMEM, cells transported to the lower chamber via transwell for 12 hours were fixed and stained with crystal violet to perform migration analysis.

[2] = test system: BAL inflammatory cells; assay: Aspergillus-infected asthmatic mouse model, BAL cells and lung histology; assay type: in vivo; settings: asthma-inducing group; BIA 0.1 mg/kg and 0.01 mg/kg, IC87114 1 mg/kg, intratracheal
Source text: FIG. 80A and FIG. 80B show mice that were infected with aspergillus with or without BIA, or IC87114, fixing the tissue to 4% formalin, injecting paraffin to make blocks, and then cutting into 4 μm thick to react to buffer and performing hematoxylin-eosin staining. The observation result (A) and the observation result (B) by PAS staining are shown.
The result is quantified by counting the total number of cells of living BAL fluid, excluding dead cells stained in trypan blue.
A. fumigatus-induced allergic pulmonary inflammation To establish the model, mice were treated with 10 μg of A. fumigatus crude antigen extract (Greer Laboratories, Cat # XPM3D3A4, Lenoir, NC, USA) with fungal substance inactivated. 0.2 ml of incomplete Freund's adjuvant (Sigma-Aldrich, Cat # F5506-6X) in regular saline It was dissolved and mixed, and half of the preparation was deposited in the peritoneal cavity and the rest was delivered subcutaneously. After 2 weeks, mice received 20 μg of A. fumigatus antigen dissolved in normal saline through the intranasal route, after an intranasal attack After 4 days, 20 μg of A. Fumigatus antigen dissolved in normal saline was treated via the endotracheal route. Control mice were administered only saline at the same time point in time through the same route and treated with the same number of conidia. […]

[3] = test system: SARS-CoV2 virus; assay: MTT cell viability of Vero E6 cells infected with SARS-CoV2; assay type: cell-based; settings: Vero E6, SARS-CoV2 0.1 MOI, 500 nM, 24 hours after treatment; control DMSO-S 66.52±2.28%; 0.5 µM
Procedure: Vero E6 cells, monkey kidney cell masters, were dispensed at 1×10^4 cells/well per well in 96 well plates and incubated at 37° C., 5% CO2 incubators for 24 hours. SARS-CoV2 to infect Vero E6 cells was S ARS-CoV 43326 distributed from the National Pathogen Resource Bank, and DMEM (2% FBS, 1% antibiotic-antimycotic) medium was dispensed at 100 μL/well to infect 0.1 MOI. For 1 hour The virus was removed after 1 hour of infection in a 37° C., 5% CO2 incubator.
Next, samples prepared so that BIA or analogue compounds were finally 500 nM were dispensed 100 μL/well, including the culture medium, and then treated in a 37° C., 5% CO2 incubator for 24 hours. In the same way, the group treated with 2 μM, 5 μM, or 10 μM of Remdesivir (Rem) was a positive control.
Check the condition of the cells, add 100 μL/well of 0.5 mg/ml MTT solution, react in a 37° C., 5% CO2 incubator for 4 hours, wash out the media, and DMSO to the cells by 100 μL/well After sufficient dissolution, absorbance was measured at 540 nm with a plate reader to evaluate cell viability.
To confirm the possibility of viral prevention and therapeutic effects of BIA and its analogue compounds, 500 nM treatment of BIA analogue at the same time as viral infection, and then MTT assay whether the viability of cells against viral infection is improved after 24 hours. The results confirmed are shown in the graph of FIG. 82.

## Nc1ccccc1C(=O)/C=C/c1cccc([N+](=O)[O-])c1 [BIA, 2E-1-2-Aminophenyl-3-3-nitrophenyl-2-propen-1-one]
[1]; HT1080, MCF7, MDA-MB-231 and SKBR3 cells, 2.0 μM BIA
  cell migration: reduced
[1]; HT1080 cells, FIGS. 64A and 64B (migration, wound healing 2 μM)
  cell migration: reduced
[1]; HT1080 fibrosarcoma cells, 10 μM, Transwell 12 hours
  migration of cancer cells: strongly inhibited
[2]
  all BAL inflammatory cells: inhibited
[3]
  cell viability: 77.94±5.51%
